Test [1] deals with Guinea-pig ileum strips, histamine-induced contraction. The test can be described thus: Anti-histamine activity in "vitro": histamine-induced spasms of guinea-pig ileum strips. It is filed as cell-based. Conditions: Cavia porcellus, 5 min, histamine 0.5 mg/liter, 5 minutes incubation, concentration giving significant inhibition (50%) of the contraction, read-out: Histamine in "vitro" (ileum) effective conc. The procedure: The histamine--(0.5 mg/liter) induced spasms are recorded Kymographically with an isotonic lever giving a 5-fold magnification.

Test [2] deals with histamine paw oedema in guinea pigs. The test can be described thus: Histamine paw oedema in guinea pigs. It is filed as in vivo, guinea pig. The settings on record: Cavia porcellus, oral dose giving paw reaction below 10 units 10 minutes after 50 μg histamine s.p., 2 hours after dosing, read-out: Anaphylaxis in guinea pigs oral effective dose in mg/kg: Histamine oedema. Summed up: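 Guinea pigs of 400–500 g were dosed orally with compound or saline 24 h after subplantar ovalbumin antiserum sensitisation in the left hind paw. Two hours after dosing, histamine 50 μg was injected subplantar into the right hind paw to induce oedema.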

Test [3] deals with Guinea pigs sensitized to ovalbumin (anaphylactic shock). The test can be described thus: Anaphylaxis in guinea pigs: protection against death after ovalbumin challenge (survival). The test is classed as in vivo, guinea pig. Conditions: Cavia porcellus, estimated ED50, oral, protection against death after i.v. 0.6 mg ovalbumin, read-out: Anaphylaxis in guinea pigs oral effective dose in mg/kg: Survival. In a few lines: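 Guinea pigs (400–500 g) sensitized by subplantar ovalbumin antiserum, dosed orally 24 h later. ED50 is the oral dose protecting 50% of animals from death.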

In brackets after ≈: the same amount, converted by molar mass. Counter-ions that a name gives are not always drawn. Like-named read-outs stand apart in the source and are kept apart here.

As for `O=c1[nH]c2ccccc2n1CCCCCCN1CCN(C(c2ccccc2)c2ccccc2)CC1` [I-a: L=H, R1=H, R2=H, (CH2)6, R6=H, R7=H, 1-{6-[4-(diphenylmethyl)-1-piperazinyl]hexyl}-1,3-dihydro-2H-benzimidazol-2-one], in test [1] (Table I-a), the IC50 stood at 0.01 µg/mL (≈ 0.0213 µM). In addition, in test [2] (Table I-a), the minimal effective dose turned out to be 2.5 mg/kg. The ED50 in test [3] (Table I-a) is 1.25 mg/kg.
In the case of `CCc1nc2ccccc2n1CCCN1CCN(C(c2ccccc2)c2ccccc2)CC1` [I-b: M=C2H5, R1=H, (CH2)3, R6=H, R7=H, 1-{3-[4-(diphenylmethyl)-1-piperazinyl]propyl}-2-ethyl-1H-benzimidazole trihydrochloride.hydrate], the IC50 in test [1] (Table I-b) came out at 0.01 µg/mL. For the same compound, the minimal effective dose in test [2] (Table I-b) worked out at 2.5 mg/kg. The ED50 in test [3] (Table I-b) is 2.5 mg/kg.
In the case of `Cc1nc2ccccc2n1CCCN1CCN(C(c2ccccc2)c2ccccc2)CC1` [I-b: M=CH3, R1=H, (CH2)3, R6=H, R7=H, 1-{3-[4-(diphenylmethyl)-1-piperazinyl]propyl}-2-methyl-1H-benzimidazole], the IC50 in test [1] (Table I-b) was determined as 0.02 µg/mL (≈ 0.0471 µM). In addition, the minimal effective dose in test [2] (Table I-b) is 2.5 mg/kg. For the same compound, in test [3] (Table I-b), the ED50 is 2.5 mg/kg.
With `Cc1nc2ccccc2n1CCCCN1CCN(C(c2ccccc2)c2ccccc2)CC1` [I-b: M=CH3, R1=H, (CH2)4, R6=H, R7=H, 1-{4-[4-(diphenylmethyl)-1-piperazinyl]butyl}-2-methyl-1H-benzimidazole], the IC50 in test [1] (Table I-b) is 0.005 µg/mL (≈ 0.0114 µM). Besides, the minimal effective dose in test [2] (Table I-b) worked out at 1.25 mg/kg. Also, in test [3] (Table I-b), the ED50 is 1.25 mg/kg.
On to `CSc1nc2ccccc2n1CCCN1CCN(C(c2ccccc2)c2ccccc2)CC1` [I-b: M=CH3S, R1=H, (CH2)3, R6=H, R7=H, 1-{3-[4-(diphenylmethyl)-1piperazinyl]propyl}-2-(methylthio)-1H-benzimidazole trihydrochloride.hydrate], for which the IC50 in test [1] (Table I-b) came to 0.16 µg/mL. For the same compound, the minimal effective dose in test [2] (Table I-b) was determined as 1.25 mg/kg. In addition, the ED50 in test [3] (Table I-b) was 1.25 mg/kg.
As for `Nc1nc2ccccc2n1CCCN1CCN(C(c2ccccc2)c2ccccc2)CC1` [I-b: M=H2N, R1=H, (CH2)3, R6=H, R7=H, 1-{3-[4-(diphenylmethyl)-1-piperazinyl]propyl}-1H-benzimidazol-2-amine], the IC50 in test [1] (Table I-b) is at most 0.16 µg/mL. Further, the minimal effective dose in test [2] (Table I-b) amounted to 2.5 mg/kg. The ED50 in test [3] (Table I-b) was 2.5 mg/kg.
As to `c1ccc(C(c2ccccc2)N2CCN(CCn3cnc4ccccc43)CC2)cc1` [I-b: M=H, R1=H, (CH2)2, R6=H, R7=H, 1-{2-[4-(diphenylmethyl)-1-piperazinyl]ethyl}-1H-benzimidazole], the IC50 in test [1] (Table I-b) was found to be 0.005 µg/mL (≈ 0.0126 µM). The minimal effective dose in test [2] (Table I-b) was found to be 1.25 mg/kg. Further, the ED50 in test [3] (Table I-b) is 1.25 mg/kg.
Regarding `Cl.Cl.Cl.Clc1ccccc1C(c1ccccc1)N1CCN(CCCn2cnc3ccccc32)CC1.O.O` (stereo not drawn) [I-b: M=H, R1=H, (CH2)3, R6=2-Cl, R7=H, 1-[3-{4-[(2-chlorophenyl)phenylmethyl]-1-piperazinyl}propyl]1H-benzimidazole trihydrochloride dihydrate], the IC50 in test [1] (Table I-b) was 0.01 µg/mL. The minimal effective dose in test [2] (Table I-b) was 1.25 mg/kg. In addition, the ED50 in test [3] (Table I-b) is 1.25 mg/kg.
In the case of `Clc1ccc(C(c2ccccc2)N2CCN(CCCn3cnc4ccccc43)CC2)cc1` (stereo not drawn) [I-b: M=H, R1=H, (CH2)3, R6=4-Cl, R7=H, 1-[3-{4-[(4-chlorophenyl)phenylmethyl]-1-piperazinyl}propyl]-1H-benzimidazole], the IC50 in test [1] (Table I-b) stood at 0.01 µg/mL (≈ 0.0225 µM). Further, the minimal effective dose in test [2] (Table I-b) amounted to 0.31 mg/kg. In test [3] (Table I-b), the ED50 is 0.08 mg/kg.
With `Fc1ccc(C(c2ccc(F)cc2)N2CCN(CCCn3cnc4ccccc43)CC2)cc1.O` [I-b: M=H, R1=H, (CH2)3, R6=4-F, R7=4-F, 1-[3-{4-[bis(4-fluorophenyl)methyl]-1-piperazinyl}propyl]-1H-benzimidazole hydrate], in test [1] (Table I-b), the IC50 stood at 0.02 µg/mL. In test [2] (Table I-b), the minimal effective dose amounted to 0.31 mg/kg. In addition, the ED50 in test [3] (Table I-b) was 0.16 mg/kg.
As for `Fc1ccc(C(c2ccccc2)N2CCN(CCCn3cnc4ccccc43)CC2)cc1` (stereo not drawn) [I-b: M=H, R1=H, (CH2)3, R6=4-F, R7=H], the IC50 in test [1] (Table I-b) was 0.005 µg/mL (≈ 0.0117 µM). For the same compound, the minimal effective dose in test [2] (Table I-b) came out at 0.31 mg/kg. In addition, the ED50 in test [3] (Table I-b) is 0.31 mg/kg.

Source of the values: US4250176A, “Piperazine derivatives” (priority 1979, dated 1981).
